Where only a bound is given, the exact number is not on record here.

Broadly, the melting point is the temperature of the solid-liquid transition. Consider `O[C@H](COc1cccc2[nH]ccc12)CN1CCC(c2c[nH]c3cc(Cl)ccc23)CC1`, for which the melting point lay in the range of 90 to 95 °C.

On to `CCOC(=O)C(=O)Nc1ccccc1Cn1cc(C(=O)OC)c2ccccc21`, for which the melting point is 174 to 177 °C. The figure for `NCC(O)COc1cccc(Cl)c1` (centres undefined) is 55 to 58 °C; for `O=C(NCCO[N+](=O)[O-])c1ccco1` it is 88 to 89 °C; for `O=CC=CC=CC=CC=Cc1ccsc1` it is 156 to 158 °C. As for `O=C1CCC(N2C(=O)c3cccc(Nc4ccc5ccccc5c4)c3C2=O)C(=O)N1` (centres undefined), the figure is 235 to 237 °C; as for `CCCCCCCCOc1cc(-n2c(=O)cc(C(F)(F)F)n(C)c2=O)c(F)cc1Cl`, 60 to 63 °C; as for `O=S(=O)(O)c1cc(O)ccc1O`, 164 to 167 °C. On to `COc1ccccc1C(Cn1ccnc1)S(=O)c1ccc(C(=O)O)cc1` (centres undefined), for which the melting point was in the range of 157 to 159 °C.

`C=CCOc1ccc(C=NO)c(O)c1` returned a melting point of 74 to 76 °C.

With `O=C1NCc2c3c(c4[nH]c5ccccc5c4c21)Cc1ccc(C=Cc2ccccn2)cc1-3`, the melting point was over 320 °C. The figure for `COc1ccccc1N1CCN(CCn2c(=O)c3cscc3n(CCC(=O)O)c2=O)CC1` is 186 to 188 °C. The figure for `Cc1cccc(C(=O)O)c1NC(=O)/C=C1\SCC(=O)N1C` is 187 °C; for `COc1ccc2[nH]cc(/C=C/c3cc(/C=C/c4ccc(OCc5ccccn5)cc4OC)[nH]n3)c2c1` it is 189 to 195 °C; for `Cc1cnc(CNC(=O)c2sc(-n3cnn(Cc4ccc(F)cc4)c3=O)cc2C)cn1` it is 189 to 191 °C. The molecule `Cc1c(-c2ccc(Cl)cc2)ccc2nc(C(=O)NC(Cc3ccc(OCc4ccccc4)cc3)C(=O)O)cn12` (centres undefined) yielded a melting point of 263 to 264 °C. As for `CC(SC1COC(c2ccc(C(=O)Nc3c(F)c(F)c(C#N)c(F)c3F)cc2)OC1)C(O)(Cn1cncn1)c1ccc(F)cc1F` (centres undefined), the figure is 182 °C; as for `Cc1cc(F)ccc1NC(=O)CCC#Cc1ccccn1`, 110 to 114 °C. For `COc1cccc2cc(C3CCN(C)CC3)oc12`, the melting point fell in the range of 74 to 75 °C. As for `CC(=O)c1ccc2c(c1)C1(c3ccccc3-2)c2ccccc2-c2ccc(C(C)=O)cc21`, the figure is 255 to 257 °C. As for `CNC(=NCCSCc1cnc(C)[nH]1)NC#N`, the figure is 141 to 142 °C; as for `COc1ccc(OC)c(-c2cn(N)c(N)n2)c1`, 159 to 160 °C.

`CCOC(C)(C)C#Cc1ncn2c1CN(C)C(=O)c1cc(F)ccc1-2` registered a melting point of 136 to 138 °C.

Take `O=C(O)CCCc1ccc(-c2ccc(F)cc2)cc1`: the melting point fell in the range of 118 to 120 °C.

`CCC1(CCCN=[N+]=[N-])C(=O)NC(=O)NC1=O` came in with a melting point of 182 to 184 °C.

`COC(=O)C=Cc1ccc2c(c1)OCCO2`: the melting point was 66 to 68 °C. In turn, `O=C(c1ccc(I)cc1)c1ccc2nc(Cl)nc(-c3cccc(Cl)c3)c2c1` came in with a melting point of 153 °C. The molecule `CCCC(=O)c1cnc2cc(COC(=O)c3ccccc3)ccc2c1Nc1ccccc1C` displayed a melting point of 110 to 112 °C. As for `O=C(CNc1ccccc1)N1CCC(Cc2ccccc2)CC1`, the figure is 107 to 109 °C; as for `COCCOc1cc([N+](=O)[O-])c2[nH]c(C3=NCC(C(OC)OC)S3)cc2c1` (centres undefined), 100 to 101 °C; as for `Cc1cc2c(c3c(=O)cc(C(=O)O)oc13)OC(C)(C)c1cc(S(=O)(=O)O)ccc1-2`, 264 to 266 °C. As for `Cc1nnc(CNc2c(C)cccc2C)o1`, the figure is 134 to 135 °C. As for `Cc1cc2c(c3c1NC(=O)CC3(C)C)OC(CO)C2` (centres undefined), the figure is 165 to 166 °C.

The molecule `Cc1cc(C)cc(Oc2c(CCl)c(C)[nH]c(=O)c2I)c1` yielded a melting point of 256 to 258 °C. As for `OCC(O)Cc1nccn1CCCCc1ccc(OCc2coc(/C=C/c3c(F)cccc3F)n2)cc1` (centres undefined), the figure is 123 to 125 °C.

Consider `CCc1nc(N)nc(N)c1-c1ccccc1Cl`, for which the melting point fell in the range of 197 to 198 °C. The figure for `CONC(=O)CC(C#Cc1ccccc1)c1ccc(OC)c(OC2CCCC2)c1` (racemic) is 111 to 114 °C; for `Cc1ccc(OC2CN(S(=O)(=O)c3ccc(C)cc3)CCc3ccccc32)cc1` (centres undefined) it is 84 to 86 °C. As for `CCOC(=O)c1cc2c(F)c(Cl)ccc2[nH]1`, the figure is 143 to 145 °C; as for `O=C1CCCC(=O)N1c1ccncc1`, 153 to 155 °C.

Molecule `COc1cc2c(cc1OC)/C(=C\c1ccc(OCC(=O)OC(C)(C)C)cc1)C(=O)N2` registered a melting point of 158 to 160 °C. The figure for `CCOC(=O)/C=C/c1cc(F)c2ncc(C(=O)NCc3ccc(Cl)cc3)c(O)c2c1` is 278 to 280 °C. The molecule `O=C(O)CCc1cccc(Oc2ccccc2Cl)c1O` gave a melting point of 90 to 92 °C. The figure for `CCCCn1c(N)nc2ccc(C3CCc4cncn43)cc21` (centres undefined) is 196 °C. As for `CC(C)c1ccccc1Sc1c(O)cc(-c2cccc(Cl)c2)oc1=O`, the figure is 177 to 178 °C. In turn, `O=C(Nc1cccc2c1ncc1c(=O)[nH]cnc12)c1c(Cl)cccc1Cl` yielded a melting point of over 250 °C. As for `COc1ccc(OC2=CCNCC2)cc1`, the figure is 45 to 46 °C.

Take `Cn1c(-c2ccc(F)cc2)c(OCCOc2ccc(C=C3SC(=O)NC3=O)cc2)c(=O)c2ccccc21`: the melting point lay within 225 to 228 °C. The figure for `CC[C@H]1C(=O)N([Si](C)(C)C(C)(C)C)[C@H]1C(=O)C=[N+]=[N-]` is 88 to 89 °C. The figure for `CC(C)C1C(=O)N(COC(=O)c2c(Cl)cccc2Cl)S(=O)(=O)N1C` (centres undefined) is 70 to 71.5 °C; for `COc1ncc(C(F)(F)F)cc1-c1cccn2nc(Nc3ccc(C4CCN(CC(=O)N(C)C)CC4)cc3)nc12` it is 122 to 124 °C.

In turn, `CSc1ccc(C2=CC(=O)C3(CCOCC3)O2)cc1` had a melting point of 135 to 138 °C. The figure for `Cc1c(C2=CCC(c3ccccc3)(N(C)C)CC2)[nH]c2ccc(C#N)cc12` (centres undefined) is 180 to 185 °C; for `O=c1c(Cn2cncn2)cc2cc(Br)ccc2n1-c1ccccc1` it is 237 to 240 °C; for `CCOC(=O)c1ccc(NC(=O)c2ccc3c(c2)C(C)(C)CC(=O)N3C)cc1` it is 175 to 177 °C. As for `COc1cc(Nc2nccc(-c3ccc(OCCCN)cc3)n2)cc(OC)c1OC`, the figure is 161 to 162 °C; as for `COc1ccccc1C1(Cc2ccccc2)C(=O)N(C)c2ccccc21` (centres undefined), 174 to 176 °C; as for `CC(=O)O[C@@H]1CC(c2ccccc2)(c2ccccc2)[C@@H]2CN(Cc3ccccc3)C[C@@H]2C1=O` (racemic), under 40 °C.

Turning to `CC(=O)OC1CSC(Oc2ccc(-c3ccncc3)nc2Cl)C(OC(C)=O)C1OC(C)=O` (centres undefined), the melting point is 179 °C. For the molecule `Cc1cc(C(N)=O)nn1CCO`, the melting point was in the range of 170 to 172 °C. The figure for `CCOC(=O)Cc1cc(O)nc(N(CC)CC)n1` is 98 to 100 °C; for `O=S(=O)(Nc1ncnc(Cl)c1Cc1cccc2ccccc12)c1ccc(Cl)cc1` it is 202 to 203 °C; for `COc1cc2[nH]c(=O)c(C(=O)O)nc2cc1-n1ccc(CNC(=O)Nc2ccc(C(=O)O)cc2)c1` it is over 300 °C. On to `O=C1Nc2ccc(F)c(F)c2[C@@](C#CC2CC2)(C(F)(F)F)O[C@H]1C1CC1` (relative stereo), for which the melting point came out at 222 °C. The figure for `C=Cc1ncn2c1[C@@H]1CCN1C(=O)c1c(Cl)cccc1-2` is 171 to 172 °C; for `COc1ccc(CC(C)NC(C)=O)cc1OCc1ccccc1` (centres undefined) it is 139 °C. On to `NS(=O)(=O)c1cccc(CCO)c1`, for which the melting point amounted to 109 °C. In turn, `COc1ccc(Cc2nc3c(c(OC)nn3C(C)CCCc3ccccc3)c(=O)[nH]2)cc1OC` (centres undefined) returned a melting point of 148 °C. Molecule `Cc1ccc(N2CCN(Cc3ccc4c(c3)NCCN4)CC2)cc1Cl` showed a melting point of 151 to 152 °C.

`N=C(NS(=O)(=O)C=Cc1ccc([N+](=O)[O-])cc1)c1ccc2ccccc2c1` registered a melting point of 180 to 182 °C. Regarding `O=C(Nc1ccc(N2CCCCC2)cc1)N(C[C@H]1CC[C@H](CN(C(=O)Nc2ccc(N3CCCCC3)cc2)C2CCCCCC2)CC1)C1CCCCCC1`, the melting point lay in the range of 175 to 178 °C. The figure for `CC(=O)c1c(N2CCOCC2)nn2ccccc12` is 164 °C.

The molecule `N#CC1CC(C#N)(c2ccc(OC(F)F)c(OCC3CC3)c2)CCC1=O` (centres undefined) returned a melting point of 142 to 143 °C. The figure for `O=C(c1ccc(Cl)cc1)C1(c2ccccc2Cl)CO1` (centres undefined) is 65 to 66 °C. As for `CC(C)N(C(=O)CN1C(=O)C(C)(CC(=O)Nc2ccccc2)C(=O)N(c2ccccc2)c2ccccc21)c1ccccc1` (centres undefined), the figure is 228 to 229 °C.

Molecule `CN1CCN(Cc2c(-c3cc(C(C)(C)C)c(O)c(C(C)(C)C)c3)nc3n2CCS3)CC1` yielded a melting point of 211 to 212 °C.

On to `NC(N)=NC(=O)Cn1cccc1`, for which the melting point turned out to be 214 °C. The figure for `Clc1ccc(C2CCNCC2)cc1` is 143 °C; for `CCc1c(CC(=O)O)ccc(OC)c1OC` it is 89 to 90 °C. As for `Cn1cc(S(=O)(=O)Cl)c(=O)c2cc(F)ccc21`, the figure is over 300 °C.

Take `CCCc1nn(-c2ccc(C(F)(F)F)cn2)cc1CO`: the melting point was 120 to 121 °C. On to `O=C(O)c1ccc(F)cc1Sc1ccccc1`, for which the melting point lay in the range of 193 to 200 °C. The figure for `COCCOc1ccc2c(C(c3cccc(NC(=O)OCc4ccccc4)c3C)C(C)[N+](=O)[O-])c[nH]c2c1` (centres undefined) is 140 °C; for `O=c1[nH]c(-c2ccccc2)nc(-c2ccncc2)c1Br` it is over 300 °C; for `COc1nc(C(F)(F)F)cc(=O)n1-c1ccc(Cl)c(C(=O)O)c1` it is 265 to 268 °C. As for `O=[N+]([O-])c1cccnc1N1CCNCC1`, the figure is 79 to 82 °C; as for `COc1ccc(CN2C(=O)C(C)(c3cc(N(C)C(=O)C4CCCN4C(C)=O)ccc3Cl)c3cc(Cl)ccc32)c(OC)c1` (centres undefined), 74 °C. The figure for `O=C1CC2(SCCS2)C(=O)N1` is 112 to 115 °C; for `CC(=O)OCC(CCn1cnc2c(=O)[nH]c(N)nc21)COC(C)=O` it is 202 to 205 °C.

The values above are taken from a melting point compilation (Tetko et al.; mined from patent text by program, amines drawn as free bases though some values may be those of a salt).
